Source: patent US11000033B2, “Ketone or oxime compound, and herbicide” (NISSAN CHEMICAL CORPORATION, priority 2014, dated 2021)

Experiments:
Format in all cases: in vivo
[1] = system: rice; assay: Test Example 4: effect on crop by soil treatment (symbol b); details: application herbicide amount 320 g/ha
How it was run: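 Crop seeds, among them rice, wheat, beet and rapeseed, were sown in sterilized diluvial soil and covered with about 1.5 cm of soil. Boxes were kept in a greenhouse at 25° C. to 30° C. for plant growth.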

[2] = system: Echinochloa oryzacola Vasing.; assay: Test Example 2: herbicidal activity, application during weed generation in submerged conditions (symbol A); details: Table 23; application herbicide amount 320 g/ha; grade 0-5 by criteria of Test Example 1
How it was run: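 Each pot contained alluvial soil under 4 cm of water with seeds of all three weeds sown together. Following growth at 25° C. to 30° C. to the one- to two-leaf stage, the floodwater received diluted emulsion at a predetermined amount; visual assessment followed at 3 weeks.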

[3] = system: Amaranthus retroflexus; assay: Test Example 5: herbicidal effect by foliage application, plastic box (symbol N); details: 320 g/ha, 3 weeks after application
How it was run: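 After sowing into sterilized diluvial soil and growing two weeks under glass at 25° C. to 30° C., seedlings receive a uniform foliar spray of diluted emulsion. Damage is judged visually three weeks on.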

SMILES	b: directly sowed rice plant, effect on crop grade [1]	Herbicidal effect grade, A: Echinochloa oryzacola Vasing. [2]	N: Amaranthus retroflexus, herbicidal effect grade [3]
CCOC(=O)C(C(=O)C(C)C)C1CC(O)=C(c2c(C)cc(C)cc2C)C1=O (stereo not drawn) [2-009]	5 (Herbicidal ratio of 90% or more (almost completely withered))	0 (Herbicidal ratio of 5% or lower (almost no effect))	0 (Herbicidal ratio of 5% or lower (almost no effect))
CCOC(=O)C(C(=O)C(F)(F)F)C1CC(O)=C(c2c(C)cc(C)cc2C)C1=O (stereo not drawn) [2-010]	0 (Herbicidal ratio of 5% or lower (almost no effect))	0 (Herbicidal ratio of 5% or lower (almost no effect))	0 (Herbicidal ratio of 5% or lower (almost no effect))
CCOC(=O)C(C(=O)Cc1ccccc1)C1CC(O)=C(c2c(C)cc(C)cc2C)C1=O (stereo not drawn) [2-011]	0 (Herbicidal ratio of 5% or lower (almost no effect))	0 (Herbicidal ratio of 5% or lower (almost no effect))	0 (Herbicidal ratio of 5% or lower (almost no effect))
CCOC(=O)C(CC)(C(C)=O)C1CC(O)=C(c2c(C)cc(C)cc2C)C1=O (stereo not drawn) [2-012]	0 (Herbicidal ratio of 5% or lower (almost no effect))	0 (Herbicidal ratio of 5% or lower (almost no effect))	0 (Herbicidal ratio of 5% or lower (almost no effect))
CCOC(=O)C(C(=O)c1ccccn1)C1CC(O)=C(c2c(C)cc(C)cc2C)C1=O (stereo not drawn) [2-013]	5 (Herbicidal ratio of 90% or more (almost completely withered))	0 (Herbicidal ratio of 5% or lower (almost no effect))	0 (Herbicidal ratio of 5% or lower (almost no effect))
COC(=O)C(C(=O)C1CC1)C1CC(O)=C(c2c(C)cc(C)cc2C)C1=O (stereo not drawn) [2-014]	5 (Herbicidal ratio of 90% or more (almost completely withered))	4 (Herbicidal ratio of 70% or higher and lower than 90%)	0 (Herbicidal ratio of 5% or lower (almost no effect))
Cc1cc(C)c(C2=C(O)CC(CC(=O)Cc3ccccc3)C2=O)c(C)c1 (stereo not drawn) [2-015]	4 (Herbicidal ratio of 70% or higher and lower than 90%)	0 (Herbicidal ratio of 5% or lower (almost no effect))	0 (Herbicidal ratio of 5% or lower (almost no effect))
Cc1cc(C)c(C2=C(O)CC(CC(=O)C(C)C)C2=O)c(C)c1 (stereo not drawn) [2-016]	5 (Herbicidal ratio of 90% or more (almost completely withered))	4 (Herbicidal ratio of 70% or higher and lower than 90%)	3 (Herbicidal ratio of 40% or higher and lower than 70%)
Cc1cc(C)c(C2=C(O)CC(CC(=O)C3CC3)C2=O)c(C)c1 (stereo not drawn) [2-017]	5 (Herbicidal ratio of 90% or more (almost completely withered))	5 (Herbicidal ratio of 90% or more (almost completely withered))	0 (Herbicidal ratio of 5% or lower (almost no effect))
CC(=O)CC1CC(OC(=O)C(C)(C)C)=C(c2c(C)cc(C)cc2C)C1=O (stereo not drawn) [2-018]	5 (Herbicidal ratio of 90% or more (almost completely withered))	4 (Herbicidal ratio of 70% or higher and lower than 90%)	0 (Herbicidal ratio of 5% or lower (almost no effect))
CCCC(=O)C(C(=O)OC)C1CC(O)=C(c2c(C)cc(C)cc2C)C1=O (stereo not drawn) [2-020]	5 (Herbicidal ratio of 90% or more (almost completely withered))	1 (Herbicidal ratio of 5% or higher and lower than 20%)	0 (Herbicidal ratio of 5% or lower (almost no effect))
CCCC(=O)CC1CC(O)=C(c2c(C)cc(C)cc2C)C1=O (stereo not drawn) [2-021]	5 (Herbicidal ratio of 90% or more (almost completely withered))	5 (Herbicidal ratio of 90% or more (almost completely withered))	0 (Herbicidal ratio of 5% or lower (almost no effect))
Cc1cc(C)c(C2=C(O)CC(CC(=O)C(C)(C)C)C2=O)c(C)c1 (stereo not drawn) [2-022]	4 (Herbicidal ratio of 70% or higher and lower than 90%)	1 (Herbicidal ratio of 5% or higher and lower than 20%)	0 (Herbicidal ratio of 5% or lower (almost no effect))
CCC(C)C(=O)CC1CC(O)=C(c2c(C)cc(C)cc2C)C1=O (stereo not drawn) [2-024]	5 (Herbicidal ratio of 90% or more (almost completely withered))	1 (Herbicidal ratio of 5% or higher and lower than 20%)	0 (Herbicidal ratio of 5% or lower (almost no effect))
Cc1cc(C)c(C2=C(O)CC(CC(=O)CC3CC3)C2=O)c(C)c1 (stereo not drawn) [2-026]	5 (Herbicidal ratio of 90% or more (almost completely withered))	4 (Herbicidal ratio of 70% or higher and lower than 90%)	0 (Herbicidal ratio of 5% or lower (almost no effect))
Cc1cc(C)c(C2=C(O)CC(CC(=O)C3CCCC3)C2=O)c(C)c1 (stereo not drawn) [2-028]	5 (Herbicidal ratio of 90% or more (almost completely withered))	3 (Herbicidal ratio of 40% or higher and lower than 70%)	0 (Herbicidal ratio of 5% or lower (almost no effect))
Cc1cc(C)c(C2=C(O)CC(CC(=O)C3CCCCC3)C2=O)c(C)c1 (stereo not drawn) [2-030]	5 (Herbicidal ratio of 90% or more (almost completely withered))	3 (Herbicidal ratio of 40% or higher and lower than 70%)	0 (Herbicidal ratio of 5% or lower (almost no effect))
C=CC(=O)CC1CC(O)=C(c2c(C)cc(C)cc2C)C1=O (stereo not drawn) [2-031]	5 (Herbicidal ratio of 90% or more (almost completely withered))	4 (Herbicidal ratio of 70% or higher and lower than 90%)	0 (Herbicidal ratio of 5% or lower (almost no effect))
Cc1cc(C)c(C2=C(O)CC(CC(=O)c3ccc(F)cc3)C2=O)c(C)c1 (stereo not drawn) [2-032]	5 (Herbicidal ratio of 90% or more (almost completely withered))	4 (Herbicidal ratio of 70% or higher and lower than 90%)	0 (Herbicidal ratio of 5% or lower (almost no effect))
CCC(=O)CCC1CC(O)=C(c2c(C)cc(C)cc2C)C1=O (stereo not drawn) [5-001]	5 (Herbicidal ratio of 90% or more (almost completely withered))	0 (Herbicidal ratio of 5% or lower (almost no effect))	0 (Herbicidal ratio of 5% or lower (almost no effect))
